Test results published in patent US10577346B2, “Benzobicycloalkane derivatives, their preparation and pharmaceutical use thereof” (priority 2016, dated 2020).

Legend:
CYP3A4 = target: T1, CYP3A4 (Homo sapiens, UniProt P08684); test: Inhibition of CYP enzyme (CYP3A4, midazolam substrate, liver microsomes); type: in vitro ADME; settings: for CYP3A4(M) inhibition rate/1 μM: midazolam (M) as probe substrate; for inhibition at 5 min, 1 μM: human, pH 7.4, midazolam (M) as probe substrate
T1 construct: from tissue; host or cells: liver microsomes
T1 sequence (P08684 whole entry): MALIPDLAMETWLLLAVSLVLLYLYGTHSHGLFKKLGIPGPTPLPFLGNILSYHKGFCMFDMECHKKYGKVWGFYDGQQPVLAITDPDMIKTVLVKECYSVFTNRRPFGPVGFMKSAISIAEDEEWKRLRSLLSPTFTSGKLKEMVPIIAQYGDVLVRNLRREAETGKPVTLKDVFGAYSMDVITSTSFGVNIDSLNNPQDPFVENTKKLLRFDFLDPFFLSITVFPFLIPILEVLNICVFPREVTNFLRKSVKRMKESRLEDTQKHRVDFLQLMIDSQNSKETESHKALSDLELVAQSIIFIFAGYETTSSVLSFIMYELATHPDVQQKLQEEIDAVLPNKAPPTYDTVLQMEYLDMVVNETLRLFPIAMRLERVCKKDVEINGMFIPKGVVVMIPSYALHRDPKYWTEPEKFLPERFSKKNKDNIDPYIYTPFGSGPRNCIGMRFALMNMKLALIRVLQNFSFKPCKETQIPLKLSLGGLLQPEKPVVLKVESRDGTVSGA
Method: Assay 3: Inhibition of CYP Enzyme
1. 0.1 M potassium phosphate buffer (K-buffer), pH 7.4 was preheated;
100 mM K-Buffer: 9.5 mL Stock A and 40.5 mL Stock B were mixed, brought to a total volume of 500 mL with Milli-Q water, and titrated to pH 7.4 of KOH or H3PO4;
Stock A (1 M monobasic potassium phosphate): 136.5 g of monobasic potassium phosphate was dissolved in 1 L of Milli-Q water; and
Stock B (1 M dibasic potassium phosphate): 174.2 g of dibasic potassium phosphate was dissolved in 1 L of Milli-Q water.
2. Serial dilutions of test compounds and reference inhibitors (400×) were prepared in a 96-well plate:
2.1 8 μL of 10 mM test compounds was transferred to 12 μL of ACN. 2.2 A separate inhibitor solution was prepared for reference: 8 μL of inhibitor DMSO stock was added with 12 μL of ACN.
2.3 A 1:3 serial dilution was prepared with a DMSO:ACN mixture (v/v: 40:60).
3. 4×NADPH cofactor (66.7 mg NADPH dissolved in 10 mL 0.1 M K-buffer, pH 7.4) was prepared.
4. 4× substrate (2 mL for each isoform) was prepared as indicated in the table below (Liver microsomes must be added on ice).
5. 0.2 mg/mL liver microsome solution (990 μL of 0.1 M K-buffer was added to each 10 μL of 20 mg/mL) was prepared on ice.
6. 200 μL of 0.2 mg/mL liver microsomes was added on ice to a 96-well plate and then 1 μL of test compound or reference compound was added into corresponding wells.
7. The following solutions were added to a 96-well plate (in duplicate) on ice:
7.1 30 μL of 2× test compounds and reference compound in 0.2 mg/mL liver microsome solution were added;
7.2 15 μL of 4× substrate solution was added.
8. The 96-well assay plate and NADPH solution were pre-heated at 37° C. for 5 minutes.
9. 15 μL of pre-heated 8 mM NADPH solution was added into the assay plates to initiate the reaction.
10. The 3A4 subtype was incubated at 37° C. for 5 min for.
11. The reaction was quenched by adding 120 μL of ACN containing an internal standard.
12. After quenching, the plates were shaked in a vibrator (IKA, MTS 2/4) for 5 min (600 rpm/min) and then centrifuged at 3, 750 rpm for 15 min (Allegra X-12R centrifuge).
13. After centrifugation, 50 μL of the supernatant from each well was taken into a 96-well plate containing 70 μL of wastons water and mixed for LC/MS analysis.

hERG potassium channel = target: T2, hERG potassium channel (Homo sapiens, UniProt Q12809); test: Inhibition of hERG potassium ion channel, manual whole-cell patch clamp in CHO hERG cells; type: cell-based; settings: human, CHO cells stably expressing hERG
T2 construct: host or cells: CHO cells stably expressing hERG
T2 sequence (Q12809 whole entry): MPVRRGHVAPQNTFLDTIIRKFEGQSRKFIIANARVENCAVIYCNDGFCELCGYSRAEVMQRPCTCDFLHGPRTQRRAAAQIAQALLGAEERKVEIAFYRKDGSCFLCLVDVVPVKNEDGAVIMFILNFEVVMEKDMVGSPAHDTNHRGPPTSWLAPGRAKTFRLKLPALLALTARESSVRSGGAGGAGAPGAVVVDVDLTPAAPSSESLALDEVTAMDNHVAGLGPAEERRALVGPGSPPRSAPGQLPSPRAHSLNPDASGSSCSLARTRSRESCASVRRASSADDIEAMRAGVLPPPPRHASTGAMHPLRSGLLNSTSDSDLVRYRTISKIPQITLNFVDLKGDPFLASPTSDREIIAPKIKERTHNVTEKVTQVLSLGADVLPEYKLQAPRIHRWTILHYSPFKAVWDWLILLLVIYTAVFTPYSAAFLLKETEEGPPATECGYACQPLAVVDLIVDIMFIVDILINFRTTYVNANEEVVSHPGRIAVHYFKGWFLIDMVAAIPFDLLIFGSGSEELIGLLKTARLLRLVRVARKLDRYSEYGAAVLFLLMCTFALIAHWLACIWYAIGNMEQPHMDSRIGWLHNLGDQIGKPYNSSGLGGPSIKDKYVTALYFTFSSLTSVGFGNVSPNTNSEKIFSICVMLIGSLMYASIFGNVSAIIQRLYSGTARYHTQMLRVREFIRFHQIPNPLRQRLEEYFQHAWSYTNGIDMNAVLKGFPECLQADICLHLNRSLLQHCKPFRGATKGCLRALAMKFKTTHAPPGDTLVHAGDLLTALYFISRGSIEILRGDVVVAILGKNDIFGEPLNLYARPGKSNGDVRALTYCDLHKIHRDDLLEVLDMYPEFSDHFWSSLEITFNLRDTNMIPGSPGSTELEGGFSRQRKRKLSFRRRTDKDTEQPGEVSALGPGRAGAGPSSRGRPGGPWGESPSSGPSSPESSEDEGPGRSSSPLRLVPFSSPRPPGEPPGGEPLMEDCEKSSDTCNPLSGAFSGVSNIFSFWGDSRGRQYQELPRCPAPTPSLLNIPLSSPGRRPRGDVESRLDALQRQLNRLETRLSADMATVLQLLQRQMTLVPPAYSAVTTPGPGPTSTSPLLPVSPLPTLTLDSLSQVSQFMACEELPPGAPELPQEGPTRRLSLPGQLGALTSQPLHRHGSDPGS
Method: (§1) Assay 2: Inhibition of hERG Potassium Ion Channel
(§2) 2.1.1 Cells used in this experiment were CHO cell lines transfected with hERG cDNA and stably expressing hERG channels (supplied by Sophion Bioscience, Denmark), with cell progeny being P15. Cells were cultured in medium containing the following ingredients Invitrogen): Ham's F12 medium, 10% (v/v) inactivated fetal bovine serum, […] hygromycin B, and […] Geneticin.
(§3) 2.1.2 CHO hERG cells were grown in Petri dishes containing the above medium and cultured in an incubator of 5% CO2 at 37° C. CHO hERG cells were transferred onto round glass plates in Petri dishes and grown on the same culture medium and culture conditions as above 24 h to 48 h prior to the electrophysiological experiments. The density of CHO hERG cells on each round glass plate must meet the requirements that the vast majority of cells are independent and separate.
(§4) 2.2 Experimental Solution
(§5) The following solutions (recommended by Sophion) were used for electrophysiological recording. The reagents used in this test were provided by Sigma.
(§6) 2.3 Electrophysiological Recording System
(§7) In this experiment, whole-cell current recording was performed using a manual patch clamp system (HEKA EPC-10 signal amplification and digital conversion system, purchased from HEKA Electronic, Germany). The round glass slide of which surface CHO hERG cells were grown on was placed in an electrophysiological recording slot under an inverted microscope. Extracellular fluid was perfused continuously in the recording slot (approximately 1 ml per minute). Conventional whole-cell patch clamp current recording technique was used in the experiment. Unless otherwise specified, the experiments were performed at normal room temperature (25° C.). Cell patch clamp at −80 mV. Cell patch clamp voltage was depolarized to +20 mV to activate hERG potassium channel, and to −50 mV after 5 sec to eliminate inactivation and generate tail currents. The tail current peak was used as a value for hERG current. When the hERG potassium current recorded in the above steps became steady under continuous perfusion of the extracellular fluid in the recording slot, the subject drug to be tested could be added to the perfusion until the inhibition of the hERG current by the drug reached a steady state. Typically, the most recent three consecutive current recording lines were generally used as a measure to determine whether the state was stable. After reaching a steady state, it was perfused with extracellular fluid for washing until the hERG current returned to the value before the drug adding. One or more drugs, or multiple concentrations of the same drug, could be tested on a single cell but it was necessary to rinse with extracellular fluid before testing a different drug. Cisapride (purchased from Sigma) was used as a positive control in the experiments to ensure normal quality of the cells used.
(§8) 2.4 Treatment and Dilution of Compounds
(§9) The compound was first dissolved in DMSO to a concentration of 10 mM and then the compound was diluted 1000-fold to a final test concentration of 10 μM using extracellular fluid.
(§10) The final concentration of DMSO in the compound test solution was 0.1%. The test concentration of cisapride as a positive control was 0.1 μM. All stock solutions and test solutions were subjected to regular 5-10 minutes of sonication and shaking to ensure complete dissolution of the compound.
(§11) The test data were analyzed by the data analysis software provided by HEKA Patchmaster (V2x73.2), Microsoft Excel and Graphpad Prism 5.0.

[1] = target: T3, hERG potassium ion channel (Homo sapiens, UniProt Q12809); test: as above; type: cell-based; settings: CHO cells stably expressing hERG
T3 construct: host or cells: CHO cells stably expressing hERG
T3 sequence (Q12809 whole entry): as above
Method: as §1, §2, §3, §4, §5, §6, §7, §8, §9, §10, §11

in vivo = settings: male, SD, rat, 10 mg/kg, oral administration of dezocine in rats, Dezocine dosed at 10 mpk
Method: LC-MS/MS method was applied for the determination of the drug concentration in plasma at different times after the example compounds were administered via gavage to rats in order to study the pharmacokinetic behavior of the compounds of the disclosure in vivo in rats and evaluate their pharmacokinetic characteristics.
Test animals: healthy adult male SD rats (weight 200-300 g, 3, fasted), provided by SLAC company;
Administration and dosage: 16 mg/kg or 24 mg/kg, 10 mL/kg, 5% 1,2-propanediol (1,2-Propanediol, Shanghai Titan Technology Co., Ltd. Lot No.: P1057349)) was administered via oral gavage to SD rats;
Blood collection: firstly, the animals which were selected to meet the test requirements prior to administration were weighed and labelled. The rats were bound before the blood collection, about 150 μl of blood from each administered rat was taken at predetermined time points via orbital vein (blood was collected before administration and at 0.083, 0.25, 0.5, 1, 2, 4, 6, and 8 h after administration respectively, 9 time points in total). Blood was transferred to a 1.5 ml tube to which K2EDTA was added previously. The collected blood sample was put on wet ice, and centrifuged (2000 g, 5 min under 4° C.) to obtain plasma sample, the whole process of which was completed within 15 minutes after blood collection. All the samples were stored at approximately −70° C. until analysis. […]

[2] = cited from earlier work

| Compound | CYP3A4(M) inhibition rate/1 μM (CYP3A4) | hERG inhibition rate/10 μM [1] | further results |
| --- | --- | --- | --- |
| CN(C(=O)Oc1ccc2c(c1)[C@@]1(C)CCCCC[C@@H](C2)[C@@H]1N)C1COC1 [Compound Z-141] | 30.8% |  |  |
| C[C@@]12CCCCC[C@@H](Cc3ccc(OC(=O)N4CCC(N5CCCCC5)CC4)cc31)[C@@H]2N [Compound Z-49] |  |  | inhibition at 10 μM (hERG potassium channel): 14.4%; inhibition at 5 min, 1 μM (CYP3A4): 7.28% |
| C[C@@]12CCCCC[C@@H](Cc3ccc(OC(=O)N4CCC(C(=O)O)CC4)cc31)[C@@H]2N [Compound Z-130] | 13.0% | 3.24% |  |
| C[C@@]12CCCCC[C@@H](Cc3ccc(OC(=O)N4CCS(=O)(=O)CC4)cc31)[C@@H]2N [Compound Z-116] | 14.2% | 11.22% |  |
| C[C@@]12CCCCC[C@@H](Cc3ccc(OC(=O)NC4CCOCC4)cc31)[C@@H]2N [Compound Z-110] | 28.0% | 13.32% |  |
| CC12CCCCCC(Cc3ccc(OC(=O)NC4CC(O)C4)cc31)C2N (stereo not drawn) [Compound Z-115] | 18.0% | 12.90% |  |
| COC1CN(C(=O)Oc2ccc3c(c2)[C@@]2(C)CCCCC[C@@H](C3)[C@@H]2N)C1 [Compound Z-111] | 45.7% |  |  |
| COCCOCCN(C)C(=O)Oc1ccc2c(c1)[C@@]1(C)CCCCC[C@@H](C2)[C@@H]1N [Compound Z-14] |  |  | inhibition at 5 min, 1 μM (CYP3A4): 49.5% |
| CN(C)CCNC(=O)Oc1ccc2c(c1)[C@@]1(C)CCCCC[C@@H](C2)[C@@H]1N [Compound Z-144] | 22.2% |  |  |
| C[C@@]12CCCCC[C@@H](Cc3ccc(OC(=O)N4CC(O)C4)cc31)[C@@H]2N [Compound Z-114] | 11.8% | 17.07% |  |
| C[C@@]12CCCCC[C@@H](Cc3ccc(OC(=O)NCCO)cc31)[C@@H]2N [Compound Z-118] | 8.8% |  |  |
| C[C@@]12CCCCC[C@@H](Cc3ccc(OC(=O)NC(CO)CO)cc31)[C@@H]2N [Compound Z-138] | 0% |  |  |
| C[C@@]12CCCCC[C@@H](Cc3ccc(OC(=O)N4CCC(CO)CC4)cc31)[C@@H]2N [Compound Z-128] | 41.9% |  |  |
| COCCCNC(=O)Oc1ccc2c(c1)[C@@]1(C)CCCCC[C@@H](C2)[C@@H]1N [Compound Z-19] |  |  | inhibition at 5 min, 1 μM (CYP3A4): 33.6% |
| CN(CCO)C(=O)Oc1ccc2c(c1)[C@@]1(C)CCCCC[C@@H](C2)[C@@H]1N [Compound Z-127] | 17.4% | 9.95% |  |
| CC(CO)NC(=O)Oc1ccc2c(c1)C1(C)CCCCCC(C2)C1N (stereo not drawn) [Compound Z-126] | 3.6% | 4.92% |  |
| CCN(C(=O)Oc1ccc2c(c1)[C@@]1(C)CCCCC[C@@H](C2)[C@@H]1N)C1CCN(C)CC1 [Compound Z-131] | 26.7% | 39.88% |  |
| C[C@@]12CCCCC[C@@H](Cc3ccc(OC(=O)NC4COC4)cc31)[C@@H]2N [Compound Z-117] | 23.8% | 20.59% |  |

| Compound | CYP3A4(M) inhibition rate/1 μM (CYP3A4) | hERG inhibition rate/10 μM [1] | further results |
| --- | --- | --- | --- |
| CN(CC(=O)O)C(=O)Oc1ccc2c(c1)[C@@]1(C)CCCCC[C@@H](C2)[C@@H]1N [Compound Z-100] |  |  | inhibition at 5 min, 1 μM (CYP3A4): 1.6% |
| C[C@@]12CCCCC[C@@H](Cc3ccc(OC(=O)NC4(CO)CC4)cc31)[C@@H]2N [Compound Z-122] | 17.0% | 1.91% |  |
| CN(C)C1CCN(C(=O)Oc2ccc3c(c2)[C@@]2(C)CCCCC[C@@H](C3)[C@@H]2N)CC1 [Compound Z-123] | 0% | 8.84% |  |
| C[C@@]12CCCCC[C@@H](Cc3ccc(O)cc31)[C@@H]2N [Dezocine, dezocine] |  |  | AUC (in vivo): 58.6 ng·h/mL; oral bioavailability [2]: ≤ 5% |
| CN1CCN(C(=O)Oc2ccc3c(c2)[C@@]2(C)CCCCC[C@@H](C3)[C@@H]2N)CC1 [Compound Z-2] |  |  | inhibition at 5 min, 1 μM (CYP3A4): 19.8% |
| C[C@@]12CCCCC[C@@H](Cc3ccc(OC(=O)Nc4ccc(O)cc4)cc31)[C@@H]2N [Compound Z-23] |  |  | inhibition at 10 μM (hERG potassium channel): 71.5%; inhibition at 5 min, 1 μM (CYP3A4): 89.2% |
| C[C@@]12CCCCC[C@@H](Cc3ccc(OC(=O)N4CCC(N5CCOCC5)CC4)cc31)[C@@H]2N [Compound Z-109] | 6.6% | 17.20% |  |
| C[C@@]12CCCCC[C@@H](Cc3ccc(OC(=O)Nc4ccc(F)cc4)cc31)[C@@H]2N [Compound Z-35] |  |  | inhibition at 5 min, 1 μM (CYP3A4): 88.1% |
| C[C@@]12CCCCC[C@@H](Cc3ccc(OC(=O)N4CCC4)cc31)[C@@H]2N [Compound Z-137] | 45.3% |  |  |
| CC12CCCCCC(Cc3ccc(OC(=O)N4CCCC(C(=O)O)C4)cc31)C2N (stereo not drawn) [Compound Z-136] | 0% |  |  |
| C[C@@]12CCCCC[C@@H](Cc3ccc(OC(=O)N4CCC(O)CC4)cc31)[C@@H]2N [Compound Z-124] | 19.6% |  |  |
| CCN(CCN(C)C)C(=O)Oc1ccc2c(c1)[C@@]1(C)CCCCC[C@@H](C2)[C@@H]1N [Compound Z-113] | 28.6% | 16.02% |  |
| CC(=O)N1CCN(C(=O)Oc2ccc3c(c2)[C@@]2(C)CCCCC[C@@H](C3)[C@@H]2N)CC1 [Compound Z-125] | 18.1% |  |  |
| CC1CNCCN1C(=O)Oc1ccc2c(c1)C1(C)CCCCCC(C2)C1N (stereo not drawn) [Compound Z-129] | 4.0% |  |  |
| COC(=O)C1CCCN(C(=O)Oc2ccc3c(c2)C2(C)CCCCCC(C3)C2N)C1 (stereo not drawn) [Compound Z-135] | 21.3% |  |  |
| CN1CCC(NC(=O)Oc2ccc3c(c2)[C@@]2(C)CCCCC[C@@H](C3)[C@@H]2N)CC1 [Compound Z-140] | 8.7% |  |  |
| COc1ccc(NC(=O)Oc2ccc3c(c2)[C@@]2(C)CCCCC[C@@H](C3)[C@@H]2N)nc1 [Compound Z-119] |  | 78% |  |
